In patent publication US20250326744A1, “PIPERAZINE DERIVATIVE OR SALT THEREOF, AND PHARMACEUTICAL COMPOSITION” (priority 2022, published 2025):
Structures can show the parent of a compound that is named as a salt.

Assays:
mexB (PA) strain = assay: Combinational effect with antibacterial agent against Pseudomonas aeruginosa (Test Examples 2 and 4): mexB (PA) strain with LVFX, TC or AZT at 1/4 MIC, EC99; format: cell-based; details: mexB (PA) strain, Test Example 4; for EC99, combinational effect with AZT, mexB (PA): combined with AZT at 1/4 MIC; for EC99, combinational effect with LVFX, mexB (PA): combined with LVFX at 1/4 MIC; for EC99, combinational effect with TC, mexB (PA): combined with TC at 1/4 MIC
Method in brief: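 P. aeruginosa mexB (PA) strain, lacking MexCD-OprJ, MexEF-OprN and MexXY and overexpressing MexAB-OprM, grown 16–20 h in CAMHB (10^4–5 CFU/well) with LVFX, TC or AZT at ¼ MIC plus test compound at 0–800 μM. Growth read as OD595; EC99 is the lowest compound concentration giving ≥99% growth inhibition.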

S-3769 strain = assay: Combinational effect with antibacterial agent against Pseudomonas aeruginosa (Test Examples 2 and 4): S-3769 strain with AMK or GM at 1/4 MIC, EC99; format: cell-based; details: S-3769 strain, Test Example 4; for EC99, combinational effect with AMK, S-3769 strain: combined with AMK at 1/4 MIC; for EC99, combinational effect with GM, S-3769 strain: combined with GM at 1/4 MIC
Method in brief: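 P. aeruginosa S-3769 (clinical isolate, MexY overexpressed) grown 16–20 h in CAMHB, 10^4 to 5 CFU/well, with AMK or GM at ¼ MIC plus test compound 0–800 μM. Growth read as OD595; EC99 is the lowest compound concentration giving ≥99% growth inhibition.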

Row | Compound | EC99, combinational effect with AZT, mexB (PA) (mexB (PA) strain) | EC99, combinational effect with LVFX, mexB (PA) (mexB (PA) strain) | EC99, combinational effect with TC, mexB (PA) (mexB (PA) strain) | EC99, combinational effect with AMK, S-3769 strain (S-3769 strain) | EC99, combinational effect with GM, S-3769 strain (S-3769 strain)
1 | CCOc1cccc(F)c1CN1CCN(C(=O)[C@H](N)C2CCN(CCc3cc(Cl)ccc3-c3c(O)cccc3F)CC2)CC1 [Example 578, Hydrochloride of (2R)-2-amino-2-(1-(2-(4-chloro-2′-fluoro-6′-hydroxy-[1,1-biphenyl]-2-yl)ethyl)piperidin-4-yl)-1-(4-(2-ethoxy-6-fluorobenzyl)piperazin-1-yl) ethan-1-one] | B (25 μM<EC99≤100 μM) | A (12.5 μM<EC99≤25 μM) | B (25 μM<EC99≤100 μM) | B (25 μM<EC99≤100 μM) | B (25 μM<EC99≤100 μM)
2 | CCOc1cccc(F)c1CN1CCN(C(=O)[C@H](N)C2CCN(CCc3cc(Cl)ccc3-c3cc(Cl)ccc3O)CC2)CC1 [Example 580, Hydrochloride of (R)-2-amino-2-(1-(2-(4,5′-dichloro-2′-hydroxy-[1,1-biphenyl]-2-yl)ethyl)piperidin-4-yl)-1-(4-(2-ethoxy-6-fluorobenzyl)piperazin-1-yl)ethan-1-one] | A (12.5 μM<EC99≤25 μM) | S (EC99≤12.5 μM) | A (12.5 μM<EC99≤25 μM) | S (EC99≤12.5 μM) | A (12.5 μM<EC99≤25 μM)
3 | CCOc1cccc(F)c1CN1CCN(C(=O)[C@H](N)C2CCN(CCc3cc(Cl)ccc3-c3cccc(F)c3O)CC2)CC1 [Example 581, Hydrochloride of (R)-2-amino-2-(1-(2-(4-chloro-3′-fluoro-2′-hydroxy-[1,1-biphenyl]-2-yl)ethyl)piperidin-4-yl)-1-(4-(2-ethoxy-6-fluorobenzyl)piperazin-1-yl)ethan-1-one] | B (25 μM<EC99≤100 μM) | A (12.5 μM<EC99≤25 μM) | B (25 μM<EC99≤100 μM) | A (12.5 μM<EC99≤25 μM) | A (12.5 μM<EC99≤25 μM)
4 | CCOc1cccc(F)c1CN1CCN(C(=O)[C@H](N)C2CCN(CCc3cc(Cl)ccc3-c3cc(O)cc(F)c3)CC2)CC1 [Example 583, Hydrochloride of (R)-2-amino-2-(1-(2-(4-chloro-3′-fluoro-5′-hydroxy-[1,1-biphenyl]-2-yl)ethyl)piperidin-4-yl)-1-(4-(2-ethoxy-6-fluorobenzyl)piperazin-1-yl)ethan-1-one] | A (12.5 μM<EC99≤25 μM) | S (EC99≤12.5 μM) | A (12.5 μM<EC99≤25 μM) | S (EC99≤12.5 μM) | S (EC99≤12.5 μM)
5 | CCOc1cccc(F)c1CN1CCN(C(=O)[C@H](N)C2CCN(CCc3cc(Cl)ccc3-c3cc(O)cc(Cl)c3)CC2)CC1 [Example 584, (R)-2-amino-2-(1-(2-(3′,4-dichloro-5′-hydroxy-[1,1′-biphenyl]-2-yl)ethyl)piperidin-4-yl)-1-(4-(2-ethoxy-6-fluorobenzyl)piperazin-1-yl)ethan-1-one] | S (EC99≤12.5 μM) | S (EC99≤12.5 μM) | S (EC99≤12.5 μM) | S (EC99≤12.5 μM) | S (EC99≤12.5 μM)
6 | CCOc1cccc(F)c1CN1CCN(C(=O)[C@H](N)C2CCN(CCc3cc(Cl)ccc3-c3cc(O)ccc3F)CC2)CC1 [Example 585, (R)-2-amino-2-(1-(2-(4-chloro-2′-fluoro-5′-hydroxy-[1,1′-biphenyl]-2-yl)ethyl)piperidin-4-yl)-1-(4-(2-ethoxy-6-fluorobenzyl)piperazin-1-yl)ethan-1-one] | S (EC99≤12.5 μM) | S (EC99≤12.5 μM) | S (EC99≤12.5 μM) | S (EC99≤12.5 μM) | S (EC99≤12.5 μM)
7 | CCOc1cccc(F)c1CN1CCN(C(=O)[C@H](N)C2CCN(CCc3cc(Cl)ccc3-c3cc(O)ccc3Cl)CC2)CC1 [Example 586, Hydrochloride of (R)-2-amino-2-(1-(2-(2′,4-dichloro-5′-hydroxy-[1,1-biphenyl]-2-yl)ethyl)piperidin-4-yl)-1-(4-(2-ethoxy-6-fluorobenzyl)piperazin-1-yl)ethan-1-one] | S (EC99≤12.5 μM) | S (EC99≤12.5 μM) | S (EC99≤12.5 μM) | A (12.5 μM<EC99≤25 μM) | S (EC99≤12.5 μM)
8 | CSc1ccc(O)cc1CN1CCN(C(=O)[C@H](N)C2CCN(CCc3cc(Cl)ccc3-c3ccccc3)CC2)CC1 [Example 587, Hydrochloride of (R)-2-amino-2-(1-(2-(4-chloro-[1,1-biphenyl]-2-yl)ethyl)piperidin-4-yl)-1-(4-(5-hydroxy-2-(methylthio)benzyl)piperazin-1-yl) ethan-1-one] | S (EC99≤12.5 μM) | S (EC99≤12.5 μM) | S (EC99≤12.5 μM) | A (12.5 μM<EC99≤25 μM) | A (12.5 μM<EC99≤25 μM)
9 | N[C@@H](C(=O)N1CCN(Cc2c(O)cccc2C(F)(F)F)CC1)C1CCN(CCc2cc(Cl)ccc2-c2ccccc2)CC1 [Example 588, Hydrochloride of (R)-2-amino-2-(1-(2-(4-chloro-[1,1-biphenyl]-2-yl)ethyl)piperidin-4-yl)-1-(4-(2-hydroxy-6-(trifluoromethyl)benzyl)piperazin-1-yl) ethan-1-one] | B (25 μM<EC99≤100 μM) | A (12.5 μM<EC99≤25 μM) | A (12.5 μM<EC99≤25 μM) | A (12.5 μM<EC99≤25 μM) | A (12.5 μM<EC99≤25 μM)
10 | CCSc1ccc(O)cc1CN1CCN(C(=O)[C@H](N)C2CCN(CCc3cc(Cl)ccc3-c3ccccc3)CC2)CC1 [Example 589, (R)-2-amino-2-(1-(2-(4-chloro-[1,1′-biphenyl]-2-yl)ethyl)piperidin-4-yl)-1-(4-(2-(ethylthio)-5-hydroxybenzyl)piperazin-1-yl)ethan-1-one] | S (EC99≤12.5 μM) | S (EC99≤12.5 μM) | S (EC99≤12.5 μM) | S (EC99≤12.5 μM) | S (EC99≤12.5 μM)
11 | CSc1cccc(O)c1CN1CCN(C(=O)[C@H](N)C2CCN(CCc3cc(Cl)ccc3-c3ccccc3)CC2)CC1 [Example 590, Hydrochloride of (R)-2-amino-2-(1-(2-(4-chloro-[1,1-biphenyl]-2-yl)ethyl)piperidin-4-yl)-1-(4-(2-hydroxy-6-(methylthio)benzyl)piperazin-1-yl) ethan-1-one] | S (EC99≤12.5 μM) | S (EC99≤12.5 μM) | S (EC99≤12.5 μM) | A (12.5 μM<EC99≤25 μM) | A (12.5 μM<EC99≤25 μM)
